# From patent EP1103545B1, “2-(3,5-Bis-trifluoromethyl-phenyl)-N-methyl-N-(6-morpholin-4-yl-4-o-tolyl-pyridin-3-yl)-isobutyramide” (F. HOFFMANN-LA ROCHE AG, priority 1999, dated 2001)
# Columns and labels:
# NK3 receptors = NK3 receptors (Homo sapiens, UniProt P29371); settings: binding
# [1] = tested on: motion sickness in the suncus murinus; test: Model of motion sickness; type: in vivo; settings: po
# [2] = biological target: T1, recombinant human NK1 receptor (Homo sapiens, UniProt P25103); test: Substance P induced Ca2+ influx in CHO cells (FLIPR), Schild analysis; type: cell-based
# T1 construct: expressed in transfected cells; host or cells: CHO cells
# From the text: The activity in vitro was examined by studying its effect on substance P induced Ca^2+ influxes in CHO cells expressing the recombinant human NK1 receptor. In these cells, substance P causes a concentration dependent influx of Ca^2+ which can be measured using FLIPR technology.
# emesis induced in Ferets = test: Emesis induced by various emetogens; type: in vivo
# NK2 receptors = NK2 receptors (Homo sapiens, UniProt P21452); settings: binding
# [3] = tested on: foot-tapping behaviour induced in Gerbils; test: Foot-tapping behaviour induced by i.c.v. injection of an NK1 receptor agonist; type: in vivo
# T1 sequence (P25103 whole entry): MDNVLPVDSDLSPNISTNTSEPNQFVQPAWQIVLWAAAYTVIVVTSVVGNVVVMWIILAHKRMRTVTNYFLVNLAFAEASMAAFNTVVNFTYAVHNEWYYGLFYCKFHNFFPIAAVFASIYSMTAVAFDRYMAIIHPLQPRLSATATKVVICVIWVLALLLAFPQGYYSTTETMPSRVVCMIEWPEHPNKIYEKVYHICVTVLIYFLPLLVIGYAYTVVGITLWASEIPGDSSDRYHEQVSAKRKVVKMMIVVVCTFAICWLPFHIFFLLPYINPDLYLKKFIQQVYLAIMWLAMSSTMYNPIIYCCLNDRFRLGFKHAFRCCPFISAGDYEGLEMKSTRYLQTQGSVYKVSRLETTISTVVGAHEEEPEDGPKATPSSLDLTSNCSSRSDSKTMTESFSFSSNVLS
# NK2 receptors, sequence (P21452 whole entry): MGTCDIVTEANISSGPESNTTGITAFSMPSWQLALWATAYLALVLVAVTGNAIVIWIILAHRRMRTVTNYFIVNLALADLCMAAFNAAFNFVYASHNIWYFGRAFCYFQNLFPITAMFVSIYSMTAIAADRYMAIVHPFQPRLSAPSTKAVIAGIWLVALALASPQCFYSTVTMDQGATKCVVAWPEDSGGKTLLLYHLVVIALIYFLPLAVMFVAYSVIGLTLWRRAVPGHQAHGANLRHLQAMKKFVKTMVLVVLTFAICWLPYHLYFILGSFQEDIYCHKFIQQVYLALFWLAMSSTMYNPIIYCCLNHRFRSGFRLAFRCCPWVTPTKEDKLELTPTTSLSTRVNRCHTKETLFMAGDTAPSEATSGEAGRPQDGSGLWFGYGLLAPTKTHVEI
# NK3 receptors, sequence (P29371 whole entry): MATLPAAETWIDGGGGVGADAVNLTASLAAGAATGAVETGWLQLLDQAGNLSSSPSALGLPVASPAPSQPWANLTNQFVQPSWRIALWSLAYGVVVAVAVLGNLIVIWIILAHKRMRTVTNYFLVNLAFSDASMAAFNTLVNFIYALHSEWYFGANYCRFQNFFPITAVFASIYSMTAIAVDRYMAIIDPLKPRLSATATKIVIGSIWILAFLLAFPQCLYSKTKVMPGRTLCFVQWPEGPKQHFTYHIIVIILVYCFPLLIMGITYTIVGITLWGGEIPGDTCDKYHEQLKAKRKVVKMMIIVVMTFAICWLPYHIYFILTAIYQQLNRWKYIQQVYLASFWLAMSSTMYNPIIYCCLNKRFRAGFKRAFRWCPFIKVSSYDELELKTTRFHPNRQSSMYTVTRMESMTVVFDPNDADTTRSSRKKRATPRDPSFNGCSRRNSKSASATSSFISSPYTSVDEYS
structure (smiles),measurement,setting,value
"Cc1ccccc1-c1cc(N2CCOCC2)ncc1N(C)C(=O)C(C)(C)c1cc(C(F)(F)F)cc(C(F)(F)F)c1 [compound of formula I, 2-(3,5-Bis-trifluoromethyl-phenyl)-N-methyl-N-(6-morpholin-4-yl-4-o-tolyl-pyridin-3-yl)-isobutyramide]",selectivity for the NK1 receptor compared to NK3 receptors,NK3 receptors,over 2 orders of magnitude
same,ED50,[1],0.2 mg/kg
same,slope of the Schild regression,[2],1.1
same,Kb,"[2]; Schild plot, read-out: antagonist affinity (pA2) (converted)",1.26 nM
same,emesis induced by all emetogens,"emesis induced in Ferets; 0.3 mg/kg p.o. 2 hours before emetogen (apomorphine, morphine, ipecacuanha, cisplatin, CuSO4)",completely blocked
same,ED50,"emesis induced in Ferets; Mustela putorius, po, apomorphine-induced emesis",0.1 mg/kg
same,selectivity for the NK1 receptor compared to NK2 receptors,NK2 receptors,over 2 orders of magnitude
same,total plasma concentration required to completely block the foot-tapping behaviour,[3]; Gerbils,10 ng/mL
same,functional half life,"[3]; Gerbils, persistence of antagonism of foot-tapping",8 h
same,ED50,"[3]; Meriones unguiculatus, po, read-out: dose calculated to inhibit 50 % of the foot-tapping behaviour",0.2 mg/kg
same,selectivity for the NK1 receptor compared to over 50 other binding sites,,over 2 orders of magnitude
